According to article PMC11323312, “Structural response of G protein binding to the cyclodepsipeptide inhibitor FR900359 probed by NMR spectroscopy” (Chemical Science, 2024):
Starred links: 1 amine or outer side, 2 acyl side, 3 side chain; linkers in the order of their positions; H or OH if unused. Positions of bridges follow the written chain, without caps; N, C: chain ends. Non-standard residues stand in square brackets, D forms with d. Residues, ends and D or L forms follow the SMILES beside them. *: point of attachment. Leu(3R-OH,Nα-propionyl) = CCC(=O)N[C@H](C(=O)*)[C@H](O)C(C)C; X1 = CC(C)[C@@H](O[*:3])[C@H](N[*:1])C(=O)[*:2]; NMeT = CN[C@H](C(=O)O)[C@@H](C)O; dPhLac = O=C(O)[C@H](O)Cc1ccccc1; NMeA = CN[C@@H](C)C(=O)O; NMeDha = C=C(NC)C(=O)O

Key:
Gαi/q = assay: Structural response to inhibitor binding by DNP-enhanced ssNMR (13C-NCOCX, unique pair labeling); conditions: inhibitor : protein 1.5 : 1, 4 °C overnight, nominal 105 K
Description: The protein response to inhibitor binding was studied by HNCO(CX) experiments with 20 ms mixing time recorded on DNP samples of frozen Gαi/q protein solution. The polarizing agent AsymPolPOK[36] was dried from a chloroform : methanol (1 : 1) stock solution to form a film that was resuspended with 1 mg of protein solution that was concentrated to a volume of 15 μL, subsequently 15 μL of d8-glycerol was added. The final concentration of radical in the mixture with the protein sample in the 3.2 mm NMR rotor was 10 mM. The samples were measured at a DNP setup consisting of a 400 MHz Avance Neo spectrometer (Bruker) with a 3.2 mm Cryo MAS HCN probe (Bruker) and a 263 GHz Gyrotron as microwave source. All experiments were done at a nominal temperature of 105 K. A MAS rate of 8 kHz and proton decoupling of 100 kHz were chosen. To investigate the effects of inhibitor binding, the protein solution was incubated with unlabeled FR or YM from a 10 mM DMSO stock solution at an inhibitor to protein molar ratio of 1.5 : 1 at 4 °C overnight. To study the effects of nucleotide binding, 5 μL of GDP was added to the samples from a 17 mM solution of GDP : MgCl2 (3 : 1 molar ratio) directly into the rotor. The GTP-bound state was generated by subsequent addition of 2 μL of GTP [0.1 M] and 2 μL AlF4 salt solution (150 mM MgCl2, 75 mM NaF, 15 mM AlCl3). DNP enhancement was measured by comparison of ^13C-CP spectra with and without microwave irradiation. Referencing was done indirectly using the right peak of d8-glycerol at 64.78 ppm.
In order to collect information about conformational changes in a spatially resolved manner, a unique pair labeling approach was chosen,[50] resulting in signals in the NMR spectra from a unique pair of neighboring amino acids in NCO type experiments. […] To obtain sufficient signal intensity in the experiments, spectra were recorded using DNP-enhanced ssNMR. […] Under those conditions, the full sampled conformational space is conserved and reflected in NMR line shapes, which can then be analyzed. […]

[1] = target: T1, chimeric Gαi/q protein (FR-sensitive Gαi mutant) (Homo sapiens, UniProt P63096, H188P/K180P/K54R/T187Y/V185I/V50I/V72L/Y69F); assay: Radioligand binding ([3H]PSB-15900 homologous competition, filtration assay); conditions: chimeric Gαi/q on TALON beads, 5 μg protein; [3H]PSB-15900 5 nM; unlabeled FR 0.003-30 μM; 2 h, 4 °C; 50 mM Tris-HCl pH 7.4; one-site homologous equation; mean ± SD of 3 independent experiments in duplicates
T1 construct: made in house; host or cells: E. coli (pET16b)
T1 sequence (P63096 whole entry V50I/K54R/Y69F/V72L/K180P/V185I/T187Y/H188P): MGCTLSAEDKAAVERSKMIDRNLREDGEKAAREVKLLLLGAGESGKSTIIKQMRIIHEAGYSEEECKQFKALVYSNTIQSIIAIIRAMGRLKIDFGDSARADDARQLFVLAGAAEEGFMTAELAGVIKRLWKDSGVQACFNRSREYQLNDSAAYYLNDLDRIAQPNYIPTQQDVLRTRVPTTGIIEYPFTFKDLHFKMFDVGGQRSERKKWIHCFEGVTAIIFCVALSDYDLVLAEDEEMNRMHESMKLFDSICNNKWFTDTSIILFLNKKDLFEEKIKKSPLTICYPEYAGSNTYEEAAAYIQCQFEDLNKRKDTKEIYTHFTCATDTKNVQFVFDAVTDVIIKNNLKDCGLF
Description: The purified chimeric Gαi/q protein was preincubated with TALON immobilized metal affinity chromatography (IMAC) resin beads (Takara Bio) for 1–2 h at 4 °C with gentle shaking (0.025 μL beads per 0.1 mL of protein solution in 50 mM Tris–HCl, pH 7.4; final protein amount per sample: 5 μg). Each sample contained 70 μL of assay buffer (50 mM Tris–HCl, pH 7.4), 5 μL of dimethyl sulfoxide (DMSO) or the test compound (dissolved in DMSO), 50 μL of [^3H]PSB-15900 (FR-derived radioligand; 28 Ci/mmol; Pharmaron, Cardiff, UK)[14] in assay buffer (final concentration: 5 nM) and 125 μL of protein solution. Total binding of [^3H]PSB-15900 was determined using 5 μL of DMSO, and non-specific binding was determined using 5 μL of unlabeled FR900359 (final concentration: 5 μM). For competition binding experiments, dilutions from 30 μM to 0.003 μM of unlabeled FR900359, dissolved in DMSO, were added. Incubation was performed for 2 h at 4 °C with gentle shaking. […]
Multiple regions of the protein are either directly involved in binding of cyclodepsipeptide inhibitors, as shown by structural data on bound YM,[23] or show an indirect response to binding of the inhibitor, as proposed by MD simulations.[13,25] To investigate the conformational response of the G protein to inhibitor binding, structural alterations of the G protein itself must be detected. […]

Row | Molecule | response of switch III (R242-M243) to inhibitor binding (Gαi/q; RM-pair) | response of α5 helix (V335-F336) to inhibitor binding (Gαi/q; VF-pair) | response of switch I (V179-P180) to inhibitor binding (Gαi/q; VP-pair) | Kd [1]
1 | YM-254890 | no effects in switch III | minor effects | clear narrowing of the ^13C valine signals | –
2 | C=C1C(=O)N[C@@H](C)C(=O)N(C)[C@@H](C)C(=O)N[C@@H]([C@H](OC(=O)[C@@H](NC(=O)CC)[C@H](O)C(C)C)C(C)C)C(=O)N(C)[C@@H]([C@@H](C)OC)C(=O)O[C@H](C(C)C)[C@H](NC(C)=O)C(=O)O[C@H](Cc2ccccc2)C(=O)N1C [FR, FR900359] (Ac-[X1][dPhLac][NMeDha]A[NMeA][X1](Leu(3R-OH,Nα-propionyl))[NMeT](Me); ester 1-C) | – | – | – | 271 ± 69 nM
